Measured values from patent US8552199B2, “Substituted indanes, method for the production thereof, and use thereof as drugs” (Sanofi, priority 2009, dated 2013).

Biological target: human MCH receptor (Homo sapiens (Human), UniProt Q99705)
Experiment: calcium mobilization assay (FLIPR); functional IC50 values of MCH1R antagonists
Assay type: cell-based
Settings: recombinant HEK293 cell line expressing the human MCH receptor, cellular calcium flux after addition of agonist (MCH)
Source text: Influence on the MCH Receptor in vitro; Determination of Functional IC50 Values of MCH1R Antagonists
Cloning of the cDNA for the human MCH receptor, preparation of a recombinant HEK293 cell line which expresses the human MCH receptor, and functional measurements with the recombinant cell line took place in analogy to the description by Audinot et al. (J. Biol. Chem. 2001, 276, 13554-13562). A difference from the reference was, however, the use of the plasmid pEAK8 from EDGE Biosystems (USA) for the construction of the expression vector. The host used for the transfection was a transformed HEK cell line named “PEAK Stable Cells” (likewise from EDGE Biosystems). Functional measurements of the cellular calcium flux after addition of agonist (MCH) in the presence of ligand of the invention took place with the aid of the FLIPR apparatus from Molecular Devices (USA), using protocols of the apparatus manufacturer. The compounds of the invention show a significant inhibition (>30%) of the signal induced by the agonist at a concentration of 100 μM, preferably at 10 μM, particularly preferably at 1 μM, very particularly preferably at 100 nM and very very particularly preferably at 10 nM.

human MCH receptor, sequence (Q99705 whole entry): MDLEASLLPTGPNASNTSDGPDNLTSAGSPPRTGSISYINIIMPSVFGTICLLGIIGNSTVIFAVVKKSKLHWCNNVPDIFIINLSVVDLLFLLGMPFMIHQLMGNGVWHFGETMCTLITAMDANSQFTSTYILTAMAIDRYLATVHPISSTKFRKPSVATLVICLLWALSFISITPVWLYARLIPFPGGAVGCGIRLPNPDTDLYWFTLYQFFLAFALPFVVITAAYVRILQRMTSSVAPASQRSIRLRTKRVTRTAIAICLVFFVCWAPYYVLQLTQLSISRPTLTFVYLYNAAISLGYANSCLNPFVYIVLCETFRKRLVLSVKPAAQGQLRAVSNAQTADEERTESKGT

| IC50 [nM] | Compound |
| --- | --- |
| 222 | CC(C)(C)CNCc1ccc2c(c1)C[C@H](NC(=O)c1ccc(OC[C@@H]3CCCO3)cc1)C2 [Example 1-42] |
| 139 | CN(C(=O)c1ccc(OCC2CC2)cc1)[C@@H]1Cc2ccc(CN3CCCCCC3)cc2C1 [Example 1-09] |
| 1040 | CC1(CNCc2ccc3c(c2)C[C@H](NC(=O)c2ccc(OCC4CC4)cn2)C3)CC1 [Example 1-58] |
| 1140 | CN1CCCC1c1ccc2c(c1)C[C@H](N(C)C(=O)c1ccc(OCC3CC3)cn1)C2 (stereo partly drawn) [Example 3-1, N-Methyl-N-[(R)-5-(1-methylpyrrolidin-2-yl)indan-2-yl]-5-cyclopropylmethoxypyridine-2-carboxamide] |
| 147 | CCCCOc1ccc(C(=O)N(C)[C@@H]2Cc3ccc(CNCC4(C)CCOCC4)cc3C2)nc1 [Example 1-72] |
| 144 | CN(C(=O)c1ccc(OC[C@@H]2CCCO2)cc1)[C@@H]1Cc2ccc(CNCC(C)(C)C)cc2C1 [Example 1-46] |
| 173 | CCCCOc1ccc(C(=O)N(C)[C@@H]2Cc3ccc(CN4C[C@@H]5CC[C@H]4C5)cc3C2)nc1 [Example 1-62] |
| 208 | CC1(C)CCN(Cc2ccc3c(c2)C[C@H](NC(=O)c2ccc(OC[C@@H]4CCCO4)cc2)C3)CC1 [Example 1-40] |
| 198 | CC[C@H](C)NCc1ccc2c(c1)C[C@H](N(C)C(=O)c1ccc(OCC3CC3)cc1)C2 [Example 1-36] |
| 144 | CN(C(=O)c1ccc(OCC2CC2)cc1)[C@@H]1Cc2ccc(CNCC(C)(C)C)cc2C1 [Example 1-23] |
| 777 | O=C1c2ccc(OC[C@@H]3CCCO3)cc2CCN1[C@@H]1Cc2ccc(CNC3CCCCC3)cc2C1 [Example 1-90] |
| 229 | CN(C(=O)c1ccc(OC[C@@H]2CCCO2)cc1)[C@@H]1Cc2ccc(CN3CC4CCC3CC4)cc2C1 [Example 1-47] |
| 194 | CCCCOc1ccc(C(=O)N(C)[C@@H]2Cc3ccc(CNC[C@@H]4CCCO4)cc3C2)nc1 [Example 1-66] |
| 147 | CCN(C)Cc1ccc2c(c1)C[C@H](N(C)C(=O)c1ccc(OCC3CC3)cc1)C2 [Example 1-32] |
| 123 | CN(C(=O)c1ccc(OCC2CC2)cc1)[C@@H]1Cc2ccc(CNCC3CCOCC3)cc2C1 [Example 1-15] |
| 848 | O=C(N[C@@H]1Cc2ccc(CNCCC3CC3)cc2C1)c1ccc(OCC2CC2)cn1 [Example 1-55] |
| 117 | COCCCNCc1ccc2c(c1)C[C@H](N(C)C(=O)c1ccc(OCC3CC3)cc1)C2 [Example 1-27] |
| 294 | CN(C(=O)c1ccc(OCC2CC2)cc1)[C@@H]1Cc2ccc(CN3CCC(C(C)(C)O)CC3)cc2C1 [Example 1-05] |
| 121 | CN(C(=O)c1ccc(OCC2CC2)cc1)[C@@H]1Cc2ccc(CNCC3(C)CC3)cc2C1 [Example 1-34] |
| 179 | CN(C(=O)c1ccc(OCC2CC2)cn1)[C@@H]1Cc2ccc(CN3CCCCC3)cc2C1 [Example 1-81] |
| 115 | CN(C(=O)c1ccc(OCC2CC2)cc1)[C@@H]1Cc2ccc(CN3CC[C@H](O)C3)cc2C1 [Example 1-38] |
| 111 | CN(C(=O)c1ccc(OCC2CC2)cc1)[C@@H]1Cc2ccc(CN3CCC3)cc2C1 [Example 1-31] |
| 766 | O=C(N[C@@H]1Cc2ccc(CN3CCCCCC3)cc2C1)c1ccc(OC[C@@H]2CCCO2)cn1 [Example 1-50] |

| Compound | IC50 [nM] |
| --- | --- |
| CCCCOc1ccc(C(=O)N(C)[C@@H]2Cc3ccc([C@H]4CCCN4)cc3C2)cc1 [Example 2, 4-Butoxy-N-methyl-N-((R)-(R)-5-pyrrolidin-2-ylindan-2-yl)benzamide] | 255 |
